Peptide text beside a SMILES is read from it.
System: S. aureus ATCC 43300
Assay type: cell-based, Staphylococcus aureus
Conditions: microtiter, serial 2-fold dilutions, 37°C, 16∼20 h, triplicate; – = no activity
Method: The minimal inhibitory concentration (MIC) was evaluated by a microtiter plate assay ([Wiegand et al., 2008]). Serial 2-fold dilutions of test peptides were placed into a 96-well plate containing identical bacterial inoculum and incubated at 37°C for 16∼20 h. Vancomycin was used as antibiotic control. The MIC value was defined as the lowest peptide concentration where no visible growth occurred. All tests were made in triplicate.

Compound	A1 (MIC against S. aureus ATCC 43300) [µg/mL]
CC[C@H](C)[C@@H]1NC(=O)[C@@H]2CSSC[C@@H](C(=O)N[C@@H](CCCNC(=N)N)C(=O)N[C@@H](CCCCN)C(=O)O)NC(=O)[C@H](CC(N)=O)NC(=O)[C@@H]3CSSC[C@H](NC(=O)[C@H](C)NC(=O)[C@H](C)NC(=O)[C@H](Cc4c[nH]cn4)NC(=O)CNC(=O)[C@H](C(C)C)NC(=O)[C@H](CCCCN)NC(=O)[C@H](Cc4ccccc4)NC(=O)[C@@H]4CCCN4C(=O)[C@H](CO)NC(=O)[C@H](CC(C)C)NC(=O)[C@H](CC(C)C)NC(=O)[C@H](CC(=O)O)NC(=O)[C@@H](NC(=O)[C@@H](NC(=O)[C@H](C)N)[C@@H](C)O)CSSC[C@H](NC(=O)[C@H](Cc4c[nH]c5ccccc45)NC(=O)CNC(=O)CNC(=O)[C@H](CCCNC(=N)N)NC(=O)[C@H](CCCCN)NC(=O)CNC(=O)[C@H](CCCNC(=N)N)NC(=O)[C@H](C)NC1=O)C(=O)N[C@@H](CC(N)=O)C(=O)N[C@@H](CCCCN)C(=O)N[C@@H](CCCNC(=N)N)C(=O)N[C@@H](C)C(=O)N[C@@H](C(C)C)C(=O)N3)C(=O)N[C@@H](C)C(=O)N[C@@H](C)C(=O)N[C@@H](Cc1c[nH]cn1)C(=O)N2 [ID10] (HELM PEPTIDE1{A.T.C.D.L.L.S.P.F.K.V.G.H.A.A.C.A.A.H.C.I.A.R.G.K.R.G.G.W.C.N.K.R.A.V.C.N.C.R.K}$PEPTIDE1,PEPTIDE1,3:R3-30:R3|PEPTIDE1,PEPTIDE1,16:R3-36:R3|PEPTIDE1,PEPTIDE1,20:R3-38:R3$$$V2.0; N-terminus and C-terminus assumed; bridges inferred)	16
CC[C@H](C)[C@@H]1NC(=O)[C@@H]2CSSC[C@@H](C(=O)N[C@@H](CCCNC(=N)N)C(=O)N[C@@H](CCCCN)C(=O)O)NC(=O)[C@H](CC(N)=O)NC(=O)[C@@H]3CSSC[C@H](NC(=O)[C@H](C)NC(=O)[C@H](C)NC(=O)[C@H](Cc4c[nH]cn4)NC(=O)CNC(=O)[C@H](C(C)C)NC(=O)CNC(=O)[C@H](Cc4ccccc4)NC(=O)[C@@H]4CCCN4C(=O)[C@H](CO)NC(=O)[C@H](CC(C)C)NC(=O)[C@H](CC(C)C)NC(=O)[C@H](CC(=O)O)NC(=O)[C@@H](NC(=O)[C@@H](NC(=O)[C@H](C)N)[C@@H](C)O)CSSC[C@H](NC(=O)[C@H](Cc4c[nH]c5ccccc45)NC(=O)CNC(=O)CNC(=O)[C@H](CCCNC(=N)N)NC(=O)[C@H](CCCCN)NC(=O)CNC(=O)[C@H](CCCNC(=N)N)NC(=O)[C@H](C)NC1=O)C(=O)N[C@@H](CC(=O)O)C(=O)N[C@@H](CCCCN)C(=O)N[C@@H](CCCNC(=N)N)C(=O)N[C@@H](C)C(=O)N[C@@H](C(C)C)C(=O)N3)C(=O)N[C@@H](C)C(=O)N[C@@H](C)C(=O)N[C@@H](Cc1c[nH]cn1)C(=O)N2 [ID11] (HELM PEPTIDE1{A.T.C.D.L.L.S.P.F.G.V.G.H.A.A.C.A.A.H.C.I.A.R.G.K.R.G.G.W.C.D.K.R.A.V.C.N.C.R.K}$PEPTIDE1,PEPTIDE1,3:R3-30:R3|PEPTIDE1,PEPTIDE1,16:R3-36:R3|PEPTIDE1,PEPTIDE1,20:R3-38:R3$$$V2.0; N-terminus and C-terminus assumed; bridges inferred)	16
CC[C@H](C)[C@@H]1NC(=O)[C@@H]2CSSC[C@@H](C(=O)N[C@@H](CCCNC(=N)N)C(=O)N[C@@H](CCCCN)C(=O)O)NC(=O)[C@H](CC(N)=O)NC(=O)[C@@H]3CSSC[C@H](NC(=O)[C@H](C)NC(=O)[C@H](C)NC(=O)[C@H](Cc4c[nH]cn4)NC(=O)CNC(=O)[C@H](C(C)C)NC(=O)[C@H](CCCCN)NC(=O)[C@H](Cc4ccccc4)NC(=O)[C@@H]4CCCN4C(=O)[C@H](CO)NC(=O)[C@H](CC(C)C)NC(=O)[C@H](CC(C)C)NC(=O)[C@H](CC(=O)O)NC(=O)[C@@H](NC(=O)[C@@H](NC(=O)[C@H](C)N)[C@@H](C)O)CSSC[C@H](NC(=O)[C@H](Cc4c[nH]c5ccccc45)NC(=O)CNC(=O)CNC(=O)[C@H](CCCNC(=N)N)NC(=O)[C@H](CC(N)=O)NC(=O)CNC(=O)[C@H](CCCNC(=N)N)NC(=O)[C@H](C)NC1=O)C(=O)N[C@@H](CC(=O)O)C(=O)NCC(=O)N[C@@H](CCCNC(=N)N)C(=O)N[C@@H](C)C(=O)N[C@@H](C(C)C)C(=O)N3)C(=O)N[C@@H](C)C(=O)N[C@@H](C)C(=O)N[C@@H](Cc1c[nH]cn1)C(=O)N2 [ID18] (HELM PEPTIDE1{A.T.C.D.L.L.S.P.F.K.V.G.H.A.A.C.A.A.H.C.I.A.R.G.N.R.G.G.W.C.D.G.R.A.V.C.N.C.R.K}$PEPTIDE1,PEPTIDE1,3:R3-30:R3|PEPTIDE1,PEPTIDE1,16:R3-36:R3|PEPTIDE1,PEPTIDE1,20:R3-38:R3$$$V2.0; N-terminus and C-terminus assumed; bridges inferred)	16
CC[C@H](C)[C@@H]1NC(=O)[C@@H]2CSSC[C@@H](C(=O)N[C@@H](CCCNC(=N)N)C(=O)N[C@@H](CC(N)=O)C(=O)O)NC(=O)[C@H](CC(N)=O)NC(=O)[C@@H]3CSSC[C@H](NC(=O)[C@H](C)NC(=O)[C@H](C)NC(=O)[C@H](Cc4c[nH]cn4)NC(=O)CNC(=O)[C@H](C(C)C)NC(=O)[C@H](CCCCN)NC(=O)[C@H](Cc4ccccc4)NC(=O)[C@@H]4CCCN4C(=O)[C@H](CO)NC(=O)[C@H](CC(C)C)NC(=O)[C@H](CC(C)C)NC(=O)[C@H](CC(=O)O)NC(=O)[C@@H](NC(=O)[C@@H](NC(=O)[C@H](C)N)[C@@H](C)O)CSSC[C@H](NC(=O)[C@H](Cc4c[nH]c5ccccc45)NC(=O)CNC(=O)CNC(=O)[C@H](CCCNC(=N)N)NC(=O)[C@H](CCCCN)NC(=O)CNC(=O)[C@H](CCCNC(=N)N)NC(=O)[C@H](C)NC1=O)C(=O)N[C@@H](CC(=O)O)C(=O)NCC(=O)N[C@@H](CCCNC(=N)N)C(=O)N[C@@H](C)C(=O)N[C@@H](C(C)C)C(=O)N3)C(=O)N[C@@H](C)C(=O)N[C@@H](C)C(=O)N[C@@H](Cc1c[nH]cn1)C(=O)N2 [ID20] (HELM PEPTIDE1{A.T.C.D.L.L.S.P.F.K.V.G.H.A.A.C.A.A.H.C.I.A.R.G.K.R.G.G.W.C.D.G.R.A.V.C.N.C.R.N}$PEPTIDE1,PEPTIDE1,3:R3-30:R3|PEPTIDE1,PEPTIDE1,16:R3-36:R3|PEPTIDE1,PEPTIDE1,20:R3-38:R3$$$V2.0; N-terminus and C-terminus assumed; bridges inferred)	16

Reference: article PMC7291858, “An Enhanced Variant Designed From DLP4 Cationic Peptide Against Staphylococcus aureus CVCC 546” (Frontiers in Microbiology, 2020)
